This note sets out measurements from US8916553B2 (Bristol-Myers Squibb Company, priority 2010, dated 2014).

The assay has as its target Human CYP17 (Homo sapiens (Human), UniProt P05093). Put plainly: CYP17 Total SPA Assay. Type of assay: biochemical. To be noted: microsomes from HEK2 cells stably transfected with CYP17; 3H-Pregnenolone 1 uM; NADPH 2 mM; 45 minutes at room temperature. How it is done: CYP17 Total SPA Assay The assays were performed in U-bottom 384-well optiplates. […] The reaction was initiated by the combination of the microsomes and substrates in wells containing compound. The reaction was incubated at room temperature for 45 minutes and terminated by adding 7.5 μl of 0.2N HCl to each well. […] The plate was sealed and incubated overnight with shaking at 4° C. The beads were allowed to settle in the plate for 1 hour and the plate read on a TOPCOUNT® (Perkin-Elmer) plate reader. […] The final concentration of reagents in the assays are NADPH, 2 mM; 3H-Pregnenolone, 1 uM; microsomes, 1.25 ug/ml; […] Dose response curves were generated to determine the concentration required inhibiting 50% of enzyme activity (IC50). Compounds were dissolved at 10 mM in dimethylsulfoxide (DMSO) and evaluated at eleven concentrations, each in duplicate. IC50 values were derived by non-linear regression analysis. Table 22 below lists the IC50 values for the following Examples of this invention measured in the Total CYP17 SPA Assay hereinabove.

Chain of Human CYP17 (P05093 whole entry): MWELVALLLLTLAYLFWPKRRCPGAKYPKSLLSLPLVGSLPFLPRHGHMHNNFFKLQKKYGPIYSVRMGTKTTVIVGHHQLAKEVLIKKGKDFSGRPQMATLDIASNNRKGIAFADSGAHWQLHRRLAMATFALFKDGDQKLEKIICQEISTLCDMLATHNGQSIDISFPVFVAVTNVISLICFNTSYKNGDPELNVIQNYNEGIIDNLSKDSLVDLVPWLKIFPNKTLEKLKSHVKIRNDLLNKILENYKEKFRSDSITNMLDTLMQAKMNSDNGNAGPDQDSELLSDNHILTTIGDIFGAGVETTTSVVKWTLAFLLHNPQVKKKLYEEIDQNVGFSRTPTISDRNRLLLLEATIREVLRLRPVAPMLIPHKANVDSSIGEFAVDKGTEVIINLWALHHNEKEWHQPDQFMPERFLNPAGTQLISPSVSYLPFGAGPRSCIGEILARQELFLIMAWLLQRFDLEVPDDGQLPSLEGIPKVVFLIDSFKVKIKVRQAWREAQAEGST

On to `COc1ccc(S(=O)(=O)Nc2ccc(-c3cncc4ccccc34)c(OC)c2)cc1` [Example 147, N-(4-(isoquinolin-4-yl)-3-methoxyphenyl)-4-methoxybenzenesulfonamide], for which the IC50 stood at 0.0027 µM. The result for `COc1cc(NS(=O)(=O)Cc2ccc(Cl)cc2)ccc1-c1cncnc1C` [Example 173, 1-(4-chlorophenyl)-N-(3-methoxy-4-(4-methylpyrimidin-5-yl)phenyl)methanesulfonamide] reads 0.0034 µM; that for `COc1ccncc1-c1ccc(NS(C)(=O)=O)cc1OCC(F)(F)F` [Example 233, N-(4-(4-methoxypyridin-3-yl)-3-(2,2,2-trifluoroethoxy)phenyl)methanesulfonamide], 0.056 µM. To `Cc1ccncc1-c1ccc(NS(C)(=O)=O)cc1OCC(F)(F)F` [Example 24, N-(4-(4-methyl-3-pyridinyl)-3-(2,2,2-trifluoroethoxy)phenyl)methane sulfonamide] belongs 0.042 µM. Take `Cc1cc(NS(C)(=O)=O)ccc1-c1cnccc1OCC(F)(F)F` [Example 198, N-(3-methyl-4-(4-(2,2,2-trifluoroethoxy)-3-pyridinyl)phenyl) methane sulfonamide]: the half-inhibitory concentration (IC50) is 0.0014 µM.

Regarding `COc1cc(NS(=O)(=O)c2ccc3ccccc3c2)ccc1-c1cncnc1C` [Example 175, N-(3-methoxy-4-(4-methylpyrimidin-5-yl)phenyl)naphthalene-2-sulfonamide], the IC50 is 0.059 µM.

`COc1cc(NS(=O)(=O)c2ccccc2)ccc1-c1cncnc1C` [Example 165, N-(3-methoxy-4-(4-methylpyrimidin-5-yl)phenyl)benzenesulfonamide]: the IC50 stood at 0.0054 µM. With `Cc1cc(NS(C)(=O)=O)ccc1-c1cnccc1Cl` [Example 195, N-(4-(4-chloro-3-pyridinyl)-3-methylphenyl)methanesulfonamide], the IC50 was found to be 0.052 µM. The result for `COc1cc(NS(=O)(=O)C2CC2)ccc1-c1cncc2ccccc12` [Example 159, N-(4-(isoquinolin-4-yl)-3-methoxyphenyl)cyclopropanesulfonamide] reads 0.0062 µM; that for `COc1cc(NS(=O)(=O)c2cccc3cccnc23)ccc1-c1cncc2ccccc12` [Example 154, N-(4-(isoquinolin-4-yl)-3-methoxyphenyl)quinoline-8-sulfonamide], 0.027 µM. The result for `CS(=O)(=O)Nc1ccc(-c2cnccc2C2CC2)c(C(F)(F)F)c1` [Example 243, N-(4-(4-cyclopropylpyridin-3-yl)-3-(trifluoromethyl)phenyl)methanesulfonamide] reads 0.039 µM; that for `COc1cc(NS(C)(=O)=O)ccc1-c1cncn2cccc12` [Example 250, N-(3-methoxy-4-(pyrrolo[1,2-c]pyrimidin-4-yl)phenyl)methanesulfonamide], 0.12 µM; that for `CS(=O)(=O)Nc1ccc(-c2cncc3ccccc23)c(OCC(F)(F)F)c1` [Example 232, N-(4-(isoquinolin-4-yl)-3-(2,2,2-trifluoroethoxy)phenyl)methanesulfonamide], 0.059 µM. The result for `CS(=O)(=O)Nc1ccc(-c2cnccc2Cl)c(OCCF)c1` [Example 236, N-(4-(4-chloropyridin-3-yl)-3-(2-fluoroethoxy)phenyl)methanesulfonamide] reads 0.174 µM. For the compound `COc1ccc(S(=O)(=O)Nc2ccc(-c3cncnc3C)c(OC)c2)cc1` [Example 170, 4-methoxy-N-(3-methoxy-4-(4-methylpyrimidin-5-yl)phenyl)benzenesulfonamide], the IC50 was 0.056 µM. To `Cc1ccncc1-c1ccc(NS(=O)(=O)C2CC2)cc1OCC(F)(F)F` [Example 184] belongs 0.0077 µM; to `COc1cc(NS(=O)(=O)c2cccnc2)ccc1-c1cncnc1C` [Example 166, N-(3-methoxy-4-(4-methylpyrimidin-5-yl)phenyl)pyridine-3-sulfonamide], 0.131 µM.

For the compound `COc1cc(NS(=O)(=O)c2cccc3ccccc23)ccc1-c1cncc2ccccc12` [Example 144, N-(4-(isoquinolin-4-yl)-3-methoxyphenyl)naphthalene-1-sulfonamide], the IC50 was 0.011 µM.

Consider `COc1cc(NS(=O)(=O)c2ccccn2)ccc1-c1cncc2ccccc12` [Example 160, N-(4-(isoquinolin-4-yl)-3-methoxyphenyl)pyridine-2-sulfonamide], for which the concentration for half-maximal inhibition (IC50) was found to be 0.006 µM. To `COc1cc(NS(=O)(=O)CC(C)C)ccc1-c1cncnc1C` [Example 164] belongs 0.1 µM; to `CCCS(=O)(=O)Nc1ccc(-c2cncnc2C)c(OC)c1` [Example 163, N-(3-methoxy-4-(4-methylpyrimidin-5-yl)phenyl)propane-1-sulfonamide], 0.134 µM. The result for `CS(=O)(=O)Nc1ccc(-c2cncc3ccccc23)c(C(F)(F)F)c1` [Example 241, N-(4-(isoquinolin-4-yl)-3-(trifluoromethyl)phenyl)methanesulfonamide] reads 0.048 µM; that for `Cc1ccncc1-c1ccc(NS(C)(=O)=O)cc1C(F)(F)F` [Example 240, N-(4-(4-methylpyridin-3-yl)-3-(trifluoromethyl)phenyl)methanesulfonamide], 0.026 µM; that for `COc1cc(NS(C)(=O)=O)ccc1-c1cncnc1OC` [Example 245], 0.057 µM. With `CCS(=O)(=O)Nc1ccc(-c2cncc3ccccc23)c(OC)c1` [Example 156, N-(4-(isoquinolin-4-yl)-3-methoxyphenyl)ethanesulfonamide], the IC50 stood at 0.0081 µM. The result for `Cc1cc(NS(C)(=O)=O)ccc1-c1cnccc1-c1ccccc1` [Example 12, N-(3-methyl-4-(4-phenyl-3-pyridinyl)phenyl)methanesulfonamide] reads 0.104 µM; that for `CS(=O)(=O)Nc1ccc(-c2cncc3ccccc23)c(OCCF)c1` [Example 234, N-(3-(2-fluoroethoxy)-4-(isoquinolin-4-yl)phenyl)methanesulfonamide], 0.04 µM; that for `COc1cc(NS(C)(=O)=O)ccc1-c1cncnc1C(C)C` [Example 220, N-(4-(4-isopropylpyrimidin-5-yl)-3-methoxyphenyl) methanesulfonamide], 0.103 µM. The result for `COc1cc(NS(=O)(=O)c2cn(C)c(C)n2)ccc1-c1cncc2ccccc12` [Example 158, N-(4-(isoquinolin-4-yl)-3-methoxyphenyl)-1,2-dimethyl-1H-imidazole-4-sulfonamide] reads 0.118 µM; that for `CS(=O)(=O)Nc1ccc(-c2cncc3ncccc23)c(OCCF)c1` [Example 239, N-(3-(2-fluoroethoxy)-4-(1,7-naphthyridin-5-yl)phenyl)methanesulfonamide], 0.051 µM; that for `COc1cc(NS(C)(=O)=O)ccc1-c1cnccc1C1CC1` [Example 225, N-(4-(4-cyclopropylpyridin-3-yl)-3-methoxyphenyl)methanesulfonamide], 0.0021 µM. To `COc1cc(NS(=O)(=O)c2ccccc2)ccc1-c1cncc2ccccc12` [Example 143, N-(4-(isoquinolin-4-yl)-3-methoxyphenyl)benzenesulfonamide] belongs 0.0029 µM. On to `CCc1ncncc1-c1ccc(NS(C)(=O)=O)cc1OC` [Example 218, N-(4-(4-ethylpyrimidin-5-yl)-3-methoxyphenyl) methanesulfonamide], for which the IC50 amounted to 0.049 µM. Take `COc1cc(NS(C)(=O)=O)ccc1-c1cncnc1C1CCCCC1` [Example 221, N-(4-(4-cyclohexylpyrimidin-5-yl)-3-methoxyphenyl)methanesulfonamide]: the half-inhibitory concentration (IC50) is 0.1 µM. For the compound `COc1cc(NS(=O)(=O)c2cccc3cccnc23)ccc1-c1cncnc1C` [Example 176, N-(3-methoxy-4-(4-methylpyrimidin-5-yl)phenyl)quinoline-8-sulfonamide], the IC50 turned out to be 0.118 µM. To `COc1cc(NS(=O)(=O)C2CC2)ccc1-c1cncnc1C` [Example 162, N-(3-methoxy-4-(4-methylpyrimidin-5-yl)phenyl)cyclopropanesulfonamide] belongs 0.169 µM; to `Cc1ccncc1-c1ccc(NS(C)(=O)=O)cc1OCC(F)F` [Example 23, N-(3-(2,2-difluoroethoxy)-4-(4-methyl-3-pyridinyl)phenyl)methane sulfonamide], 0.032 µM. To `COc1cc(NS(=O)(=O)CCc2ccccc2)ccc1-c1cncnc1C` [Example 169, N-(3-methoxy-4-(4-methylpyrimidin-5-yl)phenyl)-2-phenylethanesulfonamide] belongs 0.119 µM; to `COc1cc(NS(=O)(=O)c2ccc(Cl)cc2)ccc1-c1cncnc1C` [Example 172, 4-chloro-N-(3-methoxy-4-(4-methylpyrimidin-5-yl)phenyl)benzenesulfonamide], 0.117 µM; to `COc1cc(NS(=O)(=O)CC(F)(F)F)ccc1-c1cncnc1C` [Example 167, 2,2,2-trifluoro-N-(3-methoxy-4-(4-methylpyrimidin-5-yl)phenyl)ethanesulfonamide], 0.158 µM. `CS(=O)(=O)Nc1ccc(-c2cncc3ccccc23)c(OC(F)(F)F)c1` [Example 228, N-(4-(isoquinolin-4-yl)-3-(trifluoromethoxy)phenyl)methanesulfonamide]: the IC50 was determined as 0.0032 µM. The result for `COc1cc(NS(C)(=O)=O)ccc1-c1cncnc1C` [Example 161, N-(3-methoxy-4-(4-methylpyrimidin-5-yl)phenyl)methanesulfonamide] reads 0.112 µM.

A word on the IC50: it is the concentration needed to halve the response being measured.
